Assays:
[1] = system: activated Cas-1 in primary peritoneal macrophages; test: High-content screening / fluorescence imaging for caspase-1 modulators in primary peritoneal macrophages; type: cell-based, mouse; details: natural product 10 μM with Nig 10 μM 2 h after LPS 4 h; FPy1 5 μM
Description: The efficient and rapid discovery of Cas-1 modulators is of significant importance considering the therapeutic potential of Cas-1 in various diseases.[39,40] Therefore, we employed FPy1 to construct a high-content screening system aimed at identifying Cas-1 modulators. The level of activated Cas-1 in cells is influenced by multiple factors. To reduce the impact of factors that affect Cas-1 activation in cells, we utilized the NLRP3 inflammasome-mediated Cas-1 activation model, administering the drug during the second stage where the zymogen was converted into activated Cas-1. MCC950, a selective NLRP3 inflammasome inhibitor that could suppress Cas-1 activation, was selected as the positive drug.[41] […] To validate the efficacy of the Cas-1 modulator screening system (Fig. 6a), we first observed the fluorescence images of PMs stained with FPy1 (5 μM) in the control group, model group, and positive drug group. […] Subsequently, the impact of 25 natural products (10 μM) on activated Cas-1 were studied using high-content analysis (Fig. S20). […] To determine whether deoxyshikonin directly binds to Cas-1 and inhibits its activity, we conducted fluorescence detection following co-incubation of deoxyshikonin, FPy1 and Cas-1. […]
Harvested rat discs were fixed in 4 % buffered paraformaldehyde for 24 hours, decalcified in 10 % ethylenediaminetetraacetic acid (EDTA, Solarbio, E8030) solution for 1 month, embedded in paraffin, and sectioned at a thickness of 5 μm. […] Stained sections were evaluated by three independent raters, blinded to the research protocol, and measurements were averaged for statistical analysis. […]
In vivo fluorescence imaging of intervertebral disc degeneration
Twelve rats were modeled with needle puncture-induced intervertebral disc degeneration at the Co5/6, Co6/7 and Co 7/8 levels. […] In vivo fluorescence images were acquired using an in vivo Imaging System (PerkinElmer). […]
In vivo fluorescence imaging of osteoarthritis […]

[2] = system: Cas-1; test: Fluorescence detection after co-incubation of deoxyshikonin, FPy1 and Cas-1; type: biochemical, human
Description: The efficient and rapid discovery of Cas-1 modulators is of significant importance considering the therapeutic potential of Cas-1 in various diseases.[39,40] Therefore, we employed FPy1 to construct a high-content screening system aimed at identifying Cas-1 modulators. The level of activated Cas-1 in cells is influenced by multiple factors. To reduce the impact of factors that affect Cas-1 activation in cells, we utilized the NLRP3 inflammasome-mediated Cas-1 activation model, administering the drug during the second stage where the zymogen was converted into activated Cas-1. MCC950, a selective NLRP3 inflammasome inhibitor that could suppress Cas-1 activation, was selected as the positive drug.[41] […] To validate the efficacy of the Cas-1 modulator screening system (Fig. 6a), we first observed the fluorescence images of PMs stained with FPy1 (5 μM) in the control group, model group, and positive drug group. […] Subsequently, the impact of 25 natural products (10 μM) on activated Cas-1 were studied using high-content analysis (Fig. S20). […] To determine whether deoxyshikonin directly binds to Cas-1 and inhibits its activity, we conducted fluorescence detection following co-incubation of deoxyshikonin, FPy1 and Cas-1. […] Overall, FPy1 could serve as an effective tool for the rapid identification of lead compounds that modulate Cas-1 activity within a high-content analysis platform. […]

[3] = system: cleaved Cas-1; test: Western blot of cleaved Cas-1; type: cell-based; details: control and treated groups

## CC(C)=CCCC1=CC(=O)c2c(O)ccc(O)c2C1=O [deoxyshikonin]
[1]
  fluorescence intensity of FPy1 relative to model group, high-content analysis: significant reduction in fluorescence intensity compared to the model group
[2]
  fluorescence at 585 nm in presence of compound (direct Cas-1 inhibition): the fluorescence at 585 nm was lower in the presence of deoxyshikonin
[3]
  activated Cas-1 level (Western blot): significantly inhibit the activation of Cas-1, reducing activated Cas-1 levels

Reference: PMC12598616, “Design and optimization of caspase-1-responsive fluorescent probes for pyroptosis imaging and anti-pyroptosis drug screening” (Chemical Science, 2025)
